Tested on: symptoms of leaky gut
Experiment: Preliminary testing: effect on symptoms of leaky gut
Format: in vivo
Text: This may be due to the failure of the D amino acid isomer to be transported by the different L amino acid transport systems that exist within the body, or by completion for renal excretion that allows the L isomer to persist for a longer duration.

C[C@](N)(Cc1ccc(O)cc1)C(=O)O (single isomer, unassigned) [Demser, α-methyl-L-tyrosine]
duration of effect on leaky gut symptoms: short lived | effect on the symptoms of leaky gut: beneficial effect

— patent US12453709B2, “Compositions and methods for treating autism” (priority 2013, dated 2025)
